Measured values reported in ChEMBL document CHEMBL4024785 (J Med Chem, 2018).

Assays:
Carbonic anhydrase 1 = Carbonic anhydrase 1 (Homo sapiens, UniProt P00915)
Description: Inhibition of recombinant human carbonic anhydrase 1 expressed in Escherichia coli L21-GOLD (DE3) incubated for 10 mins prior to testing by stopped-flow CO2 hydration assay

Carbonic anhydrase 9 = Carbonic anhydrase 9 (Homo sapiens, UniProt Q16790)
Description: Inhibition of recombinant human carbonic anhydrase 9 expressed in Escherichia coli L21-GOLD (DE3) incubated for 10 mins prior to testing by stopped-flow CO2 hydration assay

Carbonic anhydrase 12 = Carbonic anhydrase 12 (Homo sapiens, UniProt O43570)
Carbonic anhydrase 12, sequence (O43570 whole entry): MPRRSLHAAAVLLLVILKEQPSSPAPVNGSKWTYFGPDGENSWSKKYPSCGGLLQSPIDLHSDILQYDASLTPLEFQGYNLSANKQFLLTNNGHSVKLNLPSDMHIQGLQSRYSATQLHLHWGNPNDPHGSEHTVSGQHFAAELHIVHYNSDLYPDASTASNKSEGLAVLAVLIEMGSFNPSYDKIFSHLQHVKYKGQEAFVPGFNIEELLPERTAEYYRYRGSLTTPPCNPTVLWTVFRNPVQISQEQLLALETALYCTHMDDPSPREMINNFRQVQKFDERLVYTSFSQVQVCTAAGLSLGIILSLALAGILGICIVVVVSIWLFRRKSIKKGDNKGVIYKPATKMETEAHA
Description: Inhibition of recombinant human carbonic anhydrase 12 expressed in Escherichia coli L21-GOLD (DE3) incubated for 10 mins prior to testing by stopped-flow CO2 hydration assay

Carbonic anhydrase 1, sequence (P00915 whole entry): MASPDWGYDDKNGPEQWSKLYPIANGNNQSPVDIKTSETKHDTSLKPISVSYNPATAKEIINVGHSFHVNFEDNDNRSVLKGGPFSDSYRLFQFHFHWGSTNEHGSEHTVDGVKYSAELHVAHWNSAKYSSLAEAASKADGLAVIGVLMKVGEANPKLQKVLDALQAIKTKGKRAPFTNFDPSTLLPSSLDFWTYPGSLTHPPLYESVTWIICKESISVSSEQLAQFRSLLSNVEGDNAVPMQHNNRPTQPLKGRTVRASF

Structure (SMILES): O=C1NS(=O)(=O)c2ccccc21 [SACCHARIN]
- Ki (Carbonic anhydrase 1): > 20 µM
- Ki (Carbonic anhydrase 9): 100 nM
- Ki (Carbonic anhydrase 12): 650 nM
